According to article PMC10386772, “Novel covalent CDK7 inhibitor potently induces apoptosis in acute myeloid leukemia and synergizes with Venetoclax” (Journal of Experimental & Clinical Cancer Research : CR, 2023):

Molecular target: CDK7 (Homo sapiens, UniProt P50613)
Test: LANCE TR-FRET in vitro kinase assay (U-Light-MBP peptide, […] ATP, […] min; […] at […] min, […] at […] min); bioTHZ1 competition pull-down target occupancy in MOLM13 cells
Type: biochemical

Chain of CDK7 (P50613 2-346): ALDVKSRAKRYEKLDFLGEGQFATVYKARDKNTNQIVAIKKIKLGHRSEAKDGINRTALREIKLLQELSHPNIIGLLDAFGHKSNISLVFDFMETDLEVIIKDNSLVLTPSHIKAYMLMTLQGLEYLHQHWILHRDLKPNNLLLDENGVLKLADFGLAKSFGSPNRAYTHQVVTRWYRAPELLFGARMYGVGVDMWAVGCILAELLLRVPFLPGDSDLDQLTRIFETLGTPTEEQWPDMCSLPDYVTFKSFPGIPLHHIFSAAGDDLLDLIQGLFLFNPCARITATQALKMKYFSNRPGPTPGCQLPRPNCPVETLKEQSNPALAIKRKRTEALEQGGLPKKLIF

IC50: 0.9 nM
Substance: XL102
